Drawing on patent US11976083B2, “Inhibitors of peptidylarginine deiminases” (Gilead Sciences, Inc., priority 2020, dated 2024), this text covers IC50 for 18 molecules.

The structures appear in SMILES notation.

In the assay the target is T1, human PAD4 (Homo sapiens, UniProt Q9UM07).
T1 construct: human PAD4 (NM_012387), A2-P663, was PCR amplified; His-SUMO (N, cleaved yes); made in house; host or cells: E. coli BL21(DE3)
The assay can be described thus: In vitro PAD4 BAEE biochemical assay. The settings on record: BAEE substrate 3 mM, 5 nM PAD4, 2 mM calcium chloride; geometric mean of multiple experiments. Put shortly:
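PAD4 5 nM, CaCl2 2 mM, BAEE 3 mM final; 50 mM MOPS pH 7.6, 50 mM NaCl, 0.05% Tween-20, 2 mM DTT. Cpd + enzyme 30 min 25 °C; substrate 2 h 25 °C; EDTA stop; OPA detection 1 h. IC50 4-parameter fit.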

In general, IC50 refers to the point on the concentration scale where inhibition reaches its midpoint.

T1 sequence (Q9UM07 2-663): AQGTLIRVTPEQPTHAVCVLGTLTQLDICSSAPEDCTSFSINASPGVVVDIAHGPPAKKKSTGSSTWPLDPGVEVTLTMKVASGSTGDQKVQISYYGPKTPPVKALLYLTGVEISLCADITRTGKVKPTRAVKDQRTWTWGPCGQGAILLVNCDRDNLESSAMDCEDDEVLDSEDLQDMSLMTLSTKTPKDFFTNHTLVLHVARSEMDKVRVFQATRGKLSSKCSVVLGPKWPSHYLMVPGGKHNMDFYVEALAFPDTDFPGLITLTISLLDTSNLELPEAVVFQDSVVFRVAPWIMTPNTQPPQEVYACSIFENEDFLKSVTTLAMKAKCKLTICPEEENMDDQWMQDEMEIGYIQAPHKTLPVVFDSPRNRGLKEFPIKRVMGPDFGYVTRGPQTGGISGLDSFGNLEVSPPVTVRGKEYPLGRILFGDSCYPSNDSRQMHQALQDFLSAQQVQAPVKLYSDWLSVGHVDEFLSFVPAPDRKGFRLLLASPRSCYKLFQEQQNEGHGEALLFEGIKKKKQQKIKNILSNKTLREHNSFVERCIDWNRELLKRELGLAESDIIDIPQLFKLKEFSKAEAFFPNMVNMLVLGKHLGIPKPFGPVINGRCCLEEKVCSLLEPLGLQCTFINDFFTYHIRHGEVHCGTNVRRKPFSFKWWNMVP

With `C[C@H]1NC(=O)[C@H]2C[C@@H]2C/C=C/C(F)(F)Cn2c(-c3nc4cc(C(=O)N[C@H]5CNCC[C@@H]5F)c(F)c(F)c4n3C)cc3ccc1nc32` [Example 547, 2-[(2~{R},5~{S},7~ {S},9~{E})-11,11-difluoro-2-methyl-4-oxo-3,13,19-triazatetracyclo [11.5.2.0^{5,7}.0^{16,20}]icosa-1(19),9,14,16(20), 17-pentaen-14-yl]-6,7-difluoro-~ {N}-[(3~{S},4~{S})-4-fluoro-3-piperidyl]-1-methyl-benzimidazole-5-carboxamide], the half-maximal inhibitory concentration (IC50) came to 0.05 µM.
The figure for `C[C@H]1NC(=O)c2ccc(Cl)nc2CCCCCn2c(-c3nc4cc(C(=O)N[C@H]5CNCC[C@@H]5F)c(F)cc4n3C3CC3)cc3ccc1nc32` [Example 751, 2-[(2~{R})-8-chloro-2-methyl-4-oxo-3,9,16,22-tetrazatetracyclo[14.5.2.0^ {5,10}.0^{19,23}]tricosa-1(22),5(10),6,8,17,19(23),20-heptaen-17-yl]-1-cyclopropyl-6-fluoro-~{N}-[(3~{S}, 4~{S})-4-fluoro-3-piperidyl]benzimidazole-5-carboxamide] is 0.032 µM; for `COc1cc(C(=O)N2CCC[C@@H](N)C2)cc2nc(-c3cc4ccc5nc4n3CCCCCOC(C)(C)C(=O)N[C@@H]5C)n(C)c12` [Example 18, (11~{R})-17-[5-[(3~{R})-3-aminopiperidine-1-carbonyl]-7-methoxy-1-methyl-benzimidazol-2-yl]-8,8,11-trimethyl-7-oxa-1,10,19-triazatricyclo[10.5.2.0^{15,18}]nonadeca-12(19),13,15(18),16-tetraen-9-one] it is 0.085 µM.
With `COc1cc(C(=O)N2C[C@H](N)[C@@H]3CC[C@H]2C3)cc2nc(-c3cc4ccc5nc4n3CCCCCc3nc(C(F)F)ccc3C(=O)N[C@@H]5C)n(C3CC3)c12` [Example 819, (2~{R})-17-[5-[(1~{S},4~{R}, 5~{R})-4-amino-2-azabicyclo [3.2.1]octane-2-carbonyl]-1-cyclopropyl-7-methoxy-benzimidazol-2-yl]-8-(difluoromethyl)-2-methyl-3,9,16,22-tetrazatetracyclo[14.5.2.0^ {5,10}.0^{19,23}] tricosa-1(21),5(10),6,8,17, 19,22-heptaen-4-one] the figure was 0.01 µM.
The figure for `COc1cc(C(=O)N2CC[C@@H](OC)[C@@H](N)C2)cc2nc(-c3cc4ccc5nc4n3CC(F)(F)CCCCC3(CC3)C(=O)N[C@@H]5C)n(C)c12` [Example 823, (11~{R})-17-[5-[(3~ {S},4~{R})-3-amino-4-methoxy-piperidine-1-carbonyl]-7-methoxy-1-methyl-benzimidazol-2-yl]-3,3-difluoro-11-methyl-spiro[1,10,19-triazatricyclo[10.5.2.0^ {15,18}]nonadeca-12 (19),13,15(18),16-tetraene-8,1′-cyclopropane]-9-one] is 0.146 µM; for `COc1cc(C(=O)N2CC[C@@H](OC)[C@@H](N)C2)cc2nc(-c3cc4ccc5nc4n3CCCCCc3ccccc3C(=O)N(C)[C@@H]5C)n(C)c12` [Example 654, (2~{R})-17-[5-[(3~{S},4~{R})-3-amino-4-methoxy-piperidine-1-carbonyl]-7-methoxy-1-methyl-benzimidazol-2-yl]-2,3-dimethyl-3,16,22-triazatetracyclo[14.5.2.0^ {5,10).0^{19,23}] tricosa-1(22),5,7,9,17,19(23), 20-heptaen-4-one] it is 0.051 µM.
Consider `CCC1NC(=O)C(C)(C)CCCCCCn2c(-c3nc4cc(C(=O)N5CC[C@@H](OC)[C@@H](N)C5)cc(OC)c4n3C)cc3ccc1nc32` (stereo partly drawn) [Example 779, 17-[5-[(3~{S),4~{R})-3-amino-4-methoxy-piperidine-1-carbonyl]-7-methoxy-1-methyl-benzimidazol-2-yl]-11-ethyl-8,8-dimethyl-1,10,19-triazatricyclo[10.5.2.0^ {15,18}]nonadeca-12,14,16,18-tetraen-9-one], for which the IC50 worked out at 0.339 µM.
With `COc1cc(C(=O)N2C[C@H](N)[C@@H]3CC[C@H]2C3)cc2nc(-c3cc4ccc5nc4n3CC(F)(F)CCCOC(C)(C)C(=O)N[C@@H]5C)n(C3CC3)c12` [Example 771, (11~{R})-17-[5-[(1~{S),4~{R}, 5~{R})-4-amino-2-azabicyclo [3.2.1]octane-2-carbonyl]-1-cyclopropyl-7-methoxy-benzimidazol-2-yl]-3,3-difluoro-8,8,11-trimethyl-7-oxa-1,10,19-triazatricyclo[10.5.2.0^ {15,18}]nonadeca-12(19),13,15(18),16-tetraen-9-one] the figure was 0.028 µM; with `COc1cc(C(=O)N2[C@H]3CC[C@@H]2[C@H](N)C3)cc2nc(-c3cc4ccc5nc4n3C[C@@H]3[C@H](COCCC(=O)N[C@@H]5C)C3(C)C)n(C)c12` (single isomer, unassigned) [Example 10, (3˜{R},5˜{S},12˜{R})-18-[5-[(1˜{R},2˜{R},4˜{S})-2-amino-7-azabicyclo[2.2.1]heptane-7-carbonyl]-7-methoxy-1-methyl-benzimidazol-2-yl]-4,4,12-trimethyl-7-oxa-1,11,20-triazatetracyclo[11.5.2.0^{3,5}.0^{16,19}]icosa-13(20),14,16(19),17-tetraen-10-one], 0.056 µM.
With `C[C@H]1NC(=O)C(C)(C)CCCCCCn2c(-c3nc4cc(C(=O)N[C@H]5CNCC[C@@H]5F)c(F)cc4n3C)cc3ccc1cc32` [Example 565, 6-fluoro-~{N}-[(3~{S}, 4~{S})-4-fluoro-3-piperidyl]-1-methyl-2-[(11~{R})-8,8,11-trimethyl-9-oxo-1,10-diazatricyclo[10.5.2.0^ {15,18}]nonadeca-12(19),13,15(18),16-tetraen-17-yl] benzimidazole-5-carboxamide] the figure was 0.041 µM.
Consider `COc1cc(C(=O)N2[C@H]3CC[C@@H]2[C@H](N)C3)cc2nc(-c3cc4ccc5nc4n3C[C@H]3C[C@H]3CCCCC(=O)N[C@@H]5C)n(C)c12` [Example 144, (3~{S),5~{R},12~{R})-18-[5-[(1~{R},2~{R},4~{S})-2-amino-7-azabicyclo[2.2.1]heptane-7-carbonyl]-7-methoxy-1-methyl-benzimidazol-2-yl]-12-methyl-1,11,20-triazatetracyclo[11.5.2.0^{3,5}.0^{16,19}] icosa-13(20),14,16(19),17-tetraen-10-one], for which the IC50 was 0.031 µM.
The figure for `COc1cc(C(=O)N[C@H]2CNCC[C@@H]2F)cc2nc(-c3cc4ccc5nc4n3C[C@H]3C[C@H]3COCCC(=O)N[C@@H]5C)n(C)c12` [Example 315, ~{N}-[(3~{S},4~{S})-4-fluoro-3-piperidyl]-7-methoxy-1-methyl-2-[(3~{S},5~{R},12~{R})-12-methyl-10-oxo-7-oxa-1,11,20-triazatetracyclo[11.5.2.0^{3,5}.0^{16,19}]icosa-13(20),14,16(19),17-tetraen-18-yl]benzimidazole-5-carboxamide] is 0.045 µM; for `COc1cc(C(=O)N2CCC[C@@H](N)C2)cc2nc(-c3cc4ccc5nc4n3CCCCOCCC(=O)N3CCC[C@H]53)n(C)c12` [Example 108, (2~{R})-16-[5-[(3~{R})-3-aminopiperidine-1-carbonyl]-7-methoxy-1-methyl-benzimidazol-2-yl]-10-oxa-6,15,21-triazatetracyclo[13.5.2.0^{2,6}.0^{18,22}] docosa-1(21),16,18(22),19-tetraen-7-one] it is 0.15 µM; for `COc1cc(C(=O)N2CC[C@@H](OC)[C@@H](N)C2)cc2nc(-c3cc4ccc5nc4n3CCCCCc3nccc(F)c3C(=O)N[C@@H]5C)n(C)c12` [Example 656, (2˜{R})-17-[5-[(3˜{S},4˜{R})-3-amino-4-methoxy-piperidine-1-carbonyl]-7-methoxy-1-methyl-benzimidazol-2-yl]-6-fluoro-2-methyl-3,9,16,22-tetrazatetracyclo[14.5.2.0^{5,10}.0^{19,23}]tricosa-1(22),5,7,9,17,19(23),20-heptaen-4-one] it is 0.124 µM.
The figure for `COc1cc(C(=O)N2[C@H]3CC[C@@H]2[C@H](N)C3)cc2nc(-c3cc4ccc5nc4n3CCCCCCCCC(=O)N[C@@H]5C)n(C)c12` [Example 286, (12~{R})-18-[5-[(1~{R},2~{R},4~{S})-2-amino-7-azabicyclo[2.2.1]heptane-7-carbonyl]-7-methoxy-1-methyl-benzimidazol-2-yl]-12-methyl-1,11,20-triazatricyclo[11.5.2.0^{16,19}]icosa-13(20),14,16(19),17-tetraen-10-one] is 0.009 µM; for `COc1cc(C(=O)N2[C@H]3CC[C@@H]2[C@H](N)C3)cc2nc(-c3cc4ccc5cc4n3CCCCCCNC(=O)c3ccccc3-5)n(C)c12` [Example 97, 17-[5-[(1~{R},2~{R},4~{S})-2-amino-7-azabicyclo[2.2.1]heptane-7-carbonyl]-7-methoxy-1-methyl-benzimidazol-2-yl]-9,16-diazatetracyclo[14.5.2.0^{2,7}.0^{19,23}] tricosa-1(22),2,4,6,17,19(23),20-heptaen-8-one] it is 0.057 µM.
The figure for `COc1cc(C(=O)N2CC[C@@H](OC)[C@@H](N)C2)cc2nc(-c3cc4ccc5nc4n3CCCCCC[C@@](F)(c3ccccn3)C(=O)N[C@@H]5C)n(C)c12` [Example 870, (8~{R},11~{R})-17-[5-[(3~ {S),4~{R})-3-amino-4-methoxy-piperidine-1-carbonyl]-7-methoxy-1-methyl-benzimidazol-2-yl]-8-fluoro-11-methyl-8-(2-pyridyl)-1,10,19-triazatricyclo[10.5.2.0^{15,18}] nonadeca-12(19), 13,15(18),16-tetraen-9-one] is 0.083 µM.
For the molecule `COc1cc(C(=O)N2[C@H]3CC[C@@H]2[C@H](N)C3)cc2nc(-c3cc4ccc5nc4n3CCCCCN(C)C(=O)N[C@@H]5C)c(C)n12` [Example 210, (10~{R})-16-[7-[(1~{R},2~{R},4~{S})-2-amino-7-azabicyclo[2.2.1]heptane-7-carbonyl]-5-methoxy-3-methyl-imidazo[1,2-a]pyridin-2-yl]-7,10-dimethyl-1,7,9,18-tetrazatricyclo[9.5.2.0^{14,17}]octadeca-11(18),12,14(17),15-tetraen-8-one], the IC50 stood at 0.039 µM.
